Data set [1] is described as follows: Inhibition against copper-induced LDL oxidation in cell-free system at 10 uM after 3 hrs by TBARS assay. The arrangement: scale not given: the % may be the effect or the level left.
Data set [2] is described as follows: Antioxidant activity against superoxide radical generation in HMEC1 cells. It counts as functional, Homo sapiens, HMEC-1.
Data set [3] in a line: Cytotoxicity against HMEC1 cells after 6 hrs by MTT assay. It counts as cell-based. The following applies: human, hmec-1, 6 h. (Tetrazolium dyes change colour on reduction, which living cells bring about.)
Data set [4] is described as follows: Antioxidant activity assessed as trolox equivalents of ABTS radical scavenging activity by TEAC assay. It counts as functional.
The nature of data set [5]: Inhibition against UV-induced LDL oxidation in cell-free system at 10 uM after 2 hrs by TBARS assay. On the set-up: scale not given: the % may be the effect or the level left.
Data set [6] is described as follows: Inhibition of cell-mediated LDL oxidation in HMEC1 cells at 10 uM after 6 hrs by TBARS assay. On the set-up: scale not given: the % may be the effect or the level left.
The next data set concerns HMEC-1. Kind of data set: Cytoprotective activity against 4HNE-induced cytotoxicity in HMEC1 cells at 25 uM by MTT assay. The data set is classed as functional, cell-based. Conditions: Homo sapiens.
Data set [7] relates to Radical scavenging activity. Nature of the data set: Antioxidant activity assessed as DPPH radical scavenging activity after. It counts as functional. In general terms: Loss of DPPH colour is used to gauge radical scavenging.

The values below come from ChEMBL document CHEMBL1177867, “Synthesis and antioxidant activity evaluation of a syringic hydrazones family” (Eur J Med Chem, 2010).

Active and inactive are the calls of the source. No cut-off for these calls is given here.

Regarding `COc1cc(/C=N/Nc2nncc3ccccc23)cc(OC)c1O.Cl`, the Activity is 5% in data set [1]; 30% in data set [2]; 66% in data set [3]; 0.75 in data set [4]; 18% in data set [5]; 4% in data set [6].
Consider `COc1cc(/C=N/NC(=O)c2cc(C)n[nH]2)cc(OC)c1O`, for which the Activity in data set [1] was determined as 4%; in data set [2], 50%; in data set [3] it was 69%; in data set [4], 1.15; in data set [5] it was 17%; in data set [6] it was 3%.
Consider `NNC(=O)c1ccncc1`, for which the outcome in the data set on HMEC-1 was inactive.
On to `COc1cc(/C=N/Nc2c(Cl)cc(C(F)(F)F)cc2Cl)cc(OC)c1O`, for which the Activity in data set [1] stood at 3%; in data set [2], 42%; in data set [3], 74%; in data set [4] it was 0.98; in data set [5] it was 15%; in data set [6], 4%.
In the case of `COc1cc(C(=O)O)cc(OC)c1O`, in the data set on HMEC-1, the result was inactive.
Usually IC50 stands for the concentration that gives 50% inhibition. On to `COc1cc(/C=N/NC(=O)c2cccnc2)cc(OC)c1O`, for which the Activity was 77% in data set [1]; 44% in data set [2]; 60% in data set [3]; 1.25 in data set [4]; 20% in data set [5]; 5% in data set [6]. Besides, the IC50 in data set [7] is 18 µM.
Consider `COc1cc(/C=N/NC(=O)c2ccncc2)cc(OC)c1O`, for which the Activity in data set [1] was determined as 85%; in data set [2], 22%; in data set [3] it was 65%; in data set [4], 1.25; in data set [5] it was 18%; in data set [6] it was 7%. For the same compound, the IC50 in data set [7] came out at 17 µM.
For the compound `COc1cc(/C=N/NC(=N)N)cc(OC)c1O.Cl`, the Activity in data set [1] came out at 6%; in data set [2], 36%; in data set [3], 70%; in data set [4] it was 0.69; in data set [5], 24%; in data set [6] it was 10%.
On to `COc1cc(/C=N/Nc2nc3ccccc3s2)cc(OC)c1O`, for which the Activity in data set [1] was found to be 2%; in data set [2], 56%; in data set [3], 55%; in data set [4], 0.89; in data set [5] it was 17%; in data set [6] it was 3%.
With `Cc1c(C)c2c(c(C)c1O)CCC(C)(C(=O)O)O2` (centres undefined) [TROLOX], the Activity in data set [1] turned out to be 6%; in data set [2], 5%; in data set [3] it was 57%; in data set [5], 18%; in data set [6] it was 3%.
Regarding `COc1cc(/C=N/NC(=O)OCc2ccccc2)cc(OC)c1O`, the Activity in data set [1] stood at 6%; in data set [2] it was 50%; in data set [3], 69%; in data set [4] it was 1.11; in data set [5] it was 18%; in data set [6] it was 3%.
For the compound `COc1cc(/C=N/Nc2ccc(F)cc2)cc(OC)c1O`, the Activity in data set [1] came out at 6%; in data set [2], 57%; in data set [3] it was 58%; in data set [4], 1.02; in data set [5], 18%; in data set [6], 5%.
Consider `COc1cc(/C=N/Nc2ccccc2F)cc(OC)c1O`, for which the Activity in data set [1] was 4%; in data set [2] it was 33%; in data set [3] it was 79%; in data set [4], 0.78; in data set [5] it was 16%; in data set [6], 13%.
